US20240424112A1, “TETRAHYDROISOQUINOLINE COMPOUNDS THAT ARE KEAP1 BINDERS” (C4X Discovery Limited, priority 2021, published 2024)

How the values were obtained:
BRD4 long isoform = target: T1, BRD4 long isoform (Homo sapiens, UniProt O60885); experiment: BRD4 degradation assay (Western blot, MDA-MB-468 cells), long isoform; format: cell-based; conditions: MDA-MB-468, n = 2
T1 construct: endogenous in cells; host or cells: MDA-MB-468
Protocol: (§1) BRD4 Degradation Assay Protocol Summary
(§2) MDA-MB-468 cells were cultured routinely in DMEM supplemented with 10% heat inactivated FBS and 1% Penicillin-Streptomycin (Thermofisher Scientific) at 37° C. 5% CO2. Cells were seeded in 6-well plates at 4*10^5 cells per well and left to adhere overnight. Example compounds were solubilised in DMSO to make 10 mM stocks followed by serial dilutions in DMSO to 200× final concentration. These were further diluted in culture media to give 20× treatment stocks before addition to cells to a 1× final concentration. Cells were then incubated at 37° C. 5% CO2 for 24 or 48 hours after which cells were lysed in RIPA buffer supplemented with cOmplete Mini Protease Inhibitor Cocktail and PhosSTOP™ (Roche). Lysates were clarified by centrifugation at 13,000 RPM for 10 minutes and the protein concentration of the resulting supernatants determined by BCA assay (ThermoFisher Scientific) as per manufacturer's instructions. Lysates were denatured and reduced in NuPAGE LDS sample buffer and sample reducing agent before 10 μg was loaded onto NuPAGE […] Tris-Acetate Mini Protein Gels (ThermoFisher Scientific). Protein was transferred to nitrocellulose membranes using a Trans-Blot Turbo Transfer System (Bio-Rad) before blocking for 1 hour in Intercept (TBS) Blocking Buffer (Li-Cor). Membranes were then incubated overnight with BRD4 (ab128874; Abcam) and α-tubulin (T6074; Sigma-Aldrich) antibodies diluted 1:2000 and 1:16,000 respectively in Tris-buffered saline 0.05% Tween 20 (TBS-T). The following day, membranes were washed with TBS-T before addition of anti-rabbit IRDye 800 CW and anti-mouse IRDye 680LT secondary antibodies (LiCor) (diluted 1:10,000 in TBS-T) for one hour. Membranes were then washed with TBS-T before imaging using a LICOR Odyssey Infrared Imaging System with Image Studio Ver 5.2 software (LiCor). Densitometry analysis was carried out in the LiCor image studio software where BRD4 signal was normalised to α-tubulin signal. Percentage degradation of BRD4 relative to the DMSO treated negative control was calculated as: =100−(signal of interest/signal of control sample*100). BRD4 degradation by dBET1 was used as positive control for each plate. Data obtained for the percentage degradation of BRD4 upon treatment with the Example compounds 1-6 and Comparative Example compounds 1-3 at 24 hour incubation are shown in Table 2 and with 48 hour incubation are shown in Table 3.

[1] = tested on: NRF2 mediated gene NAD(P)H:quinone acceptor oxidoreductase 1 (NQO1) mRNA in BEAS-2B cells; experiment: Beas2B NQO1 mRNA cell based assay; conditions: Homo sapiens, 24 h, vs vehicle (0.1% DMSO), read-out: EC50 (increase in NQO1 mRNA)
Protocol: Beas2B NQO1 mRNA Cell Based Assay
The up-regulation of the NRF2 mediated gene NAD(P)H:quinone acceptor oxidoreductase 1 (NQO1) was measured using the following assay method: BEAS-2B cells (ATCC CRL-9609) were plated in 96-well clear plates at 20,000 cells/well in 75 μL of cell culture media and incubated overnight (37° C., 5% CO2). On day 2, 25 μL of compound or controls were added to the cells for 24 h. On day 3, the medium was aspirated from the plate and the Cells-to-CT™ 1-Step TaqMan® Kit (Ambion A25603) was used to perform expression analysis directly from cultured cells without RNA purification according to the manufacturer's instructions.
Briefly, cells were washed with ice cold PBS and 22.5 μL of room-temperature DNase/Lysis solution was added to the cells and incubated at room temperature for 5 minutes. To stop the reaction, 2.25 μL of stop solution was added to the cell lysate. The samples were diluted 1:5 using nuclease free water and 2.5 μL transferred into the PCR plate. Real-time PCR was performed using the C-1000 Thermal Cycler (Bio-Rad) using human beta actin as the internal control. The cDNA was amplified with a specific primer for NQO1 using the 1-step RT-PCR master mix (Ambion Cells-to-CT™ 1-Step TaqMan® Kit A25603). The primers/probes sets that were used for amplification of cDNA were obtained from TaqMan Gene Expression Assays (Applied Biosystems). The comparative CT (ΔΔCT) relative quantification method was used to calculate the relative mRNA level of the target gene NQO1 as described in the Applied Biosystems Chemistry Guide. The data are expressed as an increase in target gene mRNA compared to vehicle (0.1% DMSO) control and the EC50 values were determined by fitting the data to a four parameter logistic fit using XLfit or XE Runner within ActivityBase.

BRD4 = target: T2, BRD4 (Homo sapiens, UniProt O60885); experiment: BRD4 degradation assay (Western blot, MDA-MB-468 cells), isoform not given; format: cell-based
T2 construct: endogenous in cells; host or cells: MDA-MB-468
Protocol: as §1
MDA-MB-468 cells were cultured routinely in DMEM supplemented with 10% heat inactivated FBS and 1% Penicillin-Streptomycin (Thermofisher Scientific) at 37° C. 5% CO2. Cells were seeded in 6-well plates at 4*10^5 cells per well and left to adhere overnight. Example compounds were solubilised in DMSO to make 10 mM stocks followed by serial dilutions in DMSO to 200× final concentration. These were further diluted in culture media to give 20× treatment stocks before addition to cells to a 1× final concentration. Cells were then incubated at 37° C. 5% CO2 for 24 or 48 hours after which cells were lysed in RIPA buffer supplemented with cOmplete Mini Protease Inhibitor Cocktail and PhosSTOP™ (Roche). Lysates were clarified by centrifugation at 13,000 RPM for 10 minutes and the protein concentration of the resulting supernatants determined by BCA assay (ThermoFisher Scientific) as per manufacturer's instructions. Lysates were denatured and reduced in NuPAGE LDS sample buffer and sample reducing agent before 10 μg was loaded onto NuPAGE […] Tris-Acetate Mini Protein Gels (ThermoFisher Scientific). […] Percentage degradation of BRD4 relative to the DMSO treated negative control was calculated as: =100−(signal of interest/signal of control sample*100). […]

BRD4 short isoform = target: T3, BRD4 short isoform (Homo sapiens, UniProt O60885); experiment: BRD4 degradation assay (Western blot, MDA-MB-468 cells), short isoform; format: cell-based; conditions: MDA-MB-468, n = 2
T3 construct: endogenous in cells; host or cells: MDA-MB-468
Protocol: as §1, §2

| Compound | % Mean Degradation of BRD4 (BRD4 long isoform; 24 h, 0.01 μM) | % Mean Degradation of BRD4 (BRD4 long isoform; 24 h, 0.1 μM) | % Mean Degradation of BRD4 (BRD4 long isoform; 24 h, 1 μM) | % Mean Degradation of BRD4 (BRD4 long isoform; 48 h, 0.01 μM) | % Mean Degradation of BRD4 (BRD4 long isoform; 48 h, 0.1 μM) | % Mean Degradation of BRD4 (BRD4 long isoform; 48 h, 1 μM) | EC50 [1] | degradation of BRD4 (BRD4; at 0.01 μM) | target protein (BRD4) degradation (BRD4; at ≥0.1 μM) | % Mean Degradation of BRD4 (BRD4 short isoform; 24 h, 0.01 μM) | % Mean Degradation of BRD4 (BRD4 short isoform; 24 h, 0.1 μM) | % Mean Degradation of BRD4 (BRD4 short isoform; 24 h, 1 μM) | % Mean Degradation of BRD4 (BRD4 short isoform; 48 h, 0.01 μM) | % Mean Degradation of BRD4 (BRD4 short isoform; 48 h, 0.1 μM) | % Mean Degradation of BRD4 (BRD4 short isoform; 48 h, 1 μM) | % Mean Degradation of BRD4 (BRD4 long isoform; 24 h, 5 μM) | % Mean Degradation of BRD4 (BRD4 long isoform; 48 h, 5 μM) | % Mean Degradation of BRD4 (BRD4 short isoform; 24 h, 5 μM) | % Mean Degradation of BRD4 (BRD4 short isoform; 48 h, 5 μM) |
| --- | --- | --- | --- | --- | --- | --- | --- | --- | --- | --- | --- | --- | --- | --- | --- | --- | --- | --- | --- |
| Cc1sc2c(c1C)C(c1ccc(Cl)cc1)=N[C@@H](CC(=O)NCC(=O)NCCn1nnc(COc3ccc(Cl)c4c3[C@@H](CN3CC5(CC5)CC3=O)N(C(=O)[C@@H]3CCCC[C@]3(C)C(=O)O)CC4)c1C)c1nnc(C)n1-2 [Example 1, (1S,2R)-2-((S)-5-Chloro-8-((1-(2-(2-(2-((S)-4-(4-chlorophenyl)-2,3,9-trimethyl-6H-thieno[3,2-f][1,2,4]triazolo[4,3-a][1,4]diazepin-6-yl)acetamido)acetamido)ethyl)-5-methyl-1H-1,2,3-triazol-4-yl)methoxy)-1-((6-oxo-5-azaspiro[2.4]heptan-5-yl)methyl)-1,2,3,4-tetrahydroisoquinoline-2-carbonyl)-1-methylcyclohexane-1-carboxylic acid] | 75% | 99% | 101% | 74% | 97% | 99% | 187 nM | up to 75% | almost complete target protein degradation | 69% | 97% | 96% | 68% | 93% | 100% |  |  |  |  |
| Cc1sc2c(c1C)C(c1ccc(Cl)cc1)=N[C@@H](CC(=O)NCCOCCNC(=O)[C@@]1(C)CCCC[C@H]1C(=O)N1CCc3c(Cl)ccc(OCc4nnn(C)c4C)c3[C@H]1CN1CC3(CC3)CC1=O)c1nnc(C)n1-2 [Comparative Example 2, (1S,2R)-2-((S)-5-chloro-8-((1,5-dimethyl-1H-1,2,3-triazol-4-yl)methoxy)-1-((6-oxo-5-azaspiro[2.4]heptan-5-yl)methyl)-1,2,3,4-tetrahydroisoquinoline-2-carbonyl)-N-(2-(2-(2-((S)-4-(4-chlorophenyl)-2,3,9-trimethyl-6H-thieno[3,2-f][1,2,4]triazolo[4,3-a][1,4]diazepin-6-yl)acetamido)ethoxy)ethyl)-1-methylcyclohexane-1-carboxamide, reference compound] |  | −33% | 3% |  | −26% | −61% | 75 nM |  |  |  | −6% | 9% |  | −15% | 13% | 14% | −124% | 26% | 20% |
| Cc1sc2c(c1C)C(c1ccc(Cl)cc1)=N[C@@H](CC(=O)NCCOCCC(=O)NCCOCc1c(COc3ccc(Cl)c4c3[C@@H](CN3CC5(CC5)CC3=O)N(C(=O)[C@@H]3CCCC[C@]3(C)C(=O)O)CC4)nnn1C)c1nnc(C)n1-2 [Example 5, (1S,2R)-2-((S)-5-Chloro-8-((5-(14-((S)-4-(4-chlorophenyl)-2,3,9-trimethyl-6H-thieno[3,2-f][1,2,4]triazolo[4,3-a][1,4]diazepin-6-yl)-6,13-dioxo-2,9-dioxa-5,12-diazatetradecyl)-1-methyl-1H-1,2,3-triazol-4-yl)methoxy)-1-((6-oxo-5-azaspiro[2.4]heptan-5-yl)methyl)-1,2,3,4-tetrahydroisoquinoline-2-carbonyl)-1-methylcyclohexane-1-carboxylic acid] |  | 1% | 65% |  | 34% | 78% | 337 nM |  |  |  | −5% | 76% |  | 40% | 78% | 69% | 82% | 78% | 80% |
